Test system: NL-RLuc virus (recombinant NL4-3 HIV with Renilla Luciferase gene)
Assay: Inhibition of HIV replication (NL-RLuc virus in MT-2 cells, luciferase readout)
Type: cell-based, Human immunodeficiency virus (HIV)
Conditions: MT2, 120 h
From the text: Inhibition of HIV Replication:
A recombinant NL-RLuc proviral clone was constructed in which a section of the nef gene form NL4-3 was replaced with the Renilla Luciferase gene. This virus is fully infectious and can undergo multiple cycles of replication in cell culture. In addition, the luciferous reporter provides a simple and easy method for quantitating the extent of virus growth and consequently, the antiviral activity of test compounds. The plasmid pNLRLuc contains the proviral NL-Rluc DNA cloned into pUC18 at the PvuII site. The NL-RLuc virus was prepared by transfection of 293T cells with the plasmid pNLRLuc. Transfections were performed using the LipofectAMINE PLUS kit form Invitrogen (Carlsbad, Calif.) according to the manufacturer and the virus generated was titered in MT-2 cells. For susceptibility analyses, the titrated virus was used to infect MT-2 cells in the presence of compound, and after 5 days of incubation, cells were processed and quantitated for virus growth by the amount of expressed luciferase. Assay media was RPMI 1640 supplemented with 10% heat inactivated fetal bovine serum (FBS), 100 units/ml penicillin G/100 units/ml streptomycin, 10 mM HEPES buffer pH 7.55 and 2 mM L-glutamine. The results form at least 2 experiments were used to calculate the EC50 values. Luciferase was quantitated using the Dual Luciferase kit form Promega (Madison, Wis.). Susceptibility of viruses to compounds was determined by incubation in the presence of serial dilutions of the compound. The 50% effective concentration (EC50) was calculated by using the exponential form of the median effect equation where (Fa)=1/[1+(ED50/drug conc.)^m](Johnson V A, Byington R T. Infectivity Assay. In Techniques in HIV Research. ed. Aldovini A, Walker B D. 71-76. New York: Stockton Press. 1990).

SMILES	EC50
Cc1nc(N2CCOCC2)nc(N2CCc3cc(-c4c(C)nc(C)c([C@H](OC(C)(C)C)C(=O)O)c4N4CCC(C)(C)CC4)ccc3C2)n1 [Example 56, (S)-2-(tert-Butoxy)-2-(4-(4,4-dimethylpiperidin-1-yl)-2,6-dimethyl-5-(2-(4-methyl-6-morpholino-1,3,5-triazin-2-yl)-1,2,3,4-tetrahydroisoquinolin-6-yl)pyridin-3-yl)acetic Acid]	1 nM
CC1(C)CCN(c2c(-c3ccc4c(c3)CCN(c3nccc(-c5cccnc5)n3)C4)cnc(Cl)c2[C@H](OC(C)(C)C)C(=O)O)CC1 [Example 149, (S)-2-(tert-Butoxy)-2-(2-chloro-4-(4,4-dimethylpiperidin-1-yl)-5-(2-(4-(pyridin-3-yl)pyrimidin-2-yl)-1,2,3,4-tetrahydroisoquinolin-6-yl)pyridin-3-yl)acetic Acid]	2 nM
Cc1nc(C)c([C@H](OC(C)(C)C)C(=O)O)c(N2CCC(C)(C)CC2)c1-c1ccc2c(c1)CCN(c1cc(N(C)CCCN(C)C)ncn1)C2 [Example 140, (S)-2-(tert-Butoxy)-2-(5-(2-(6-((3-(dimethylamino)propyl)(methyl)amino)pyrimidin-4-yl)-1,2,3,4-tetrahydroisoquinolin-6-yl)-4-(4,4-dimethylpiperidin-1-yl)-2,6-dimethylpyridin-3-yl)acetic Acid]	35 nM
COc1ccccc1-c1cc(N2CCc3cc(-c4c(C)nc(C)c([C@H](OC(C)(C)C)C(=O)O)c4N4CCC(C)(C)CC4)ccc3C2)ncn1 [Example 123, (S)-2-(tert-Butoxy)-2-(4-(4,4-dimethylpiperidin-1-yl)-5-(2-(6-(2-methoxyphenyl)pyrimidin-4-yl)-1,2,3,4-tetrahydroisoquinolin-6-yl)-2,6-dimethylpyridin-3-yl)acetic Acid]	11 nM
CC1(C)CCN(c2c(-c3ccc4c(c3)CCN(c3nccc(-c5cnccn5)n3)C4)cnc(Cl)c2[C@H](OC(C)(C)C)C(=O)O)CC1 [Example 153, (S)-2-(tert-Butoxy)-2-(2-chloro-4-(4,4-dimethylpiperidin-1-yl)-5-(2-(4-(pyrazin-2-yl)pyrimidin-2-yl)-1,2,3,4-tetrahydroisoquinolin-6-yl)pyridin-3-yl)acetic Acid]	2 nM
Cc1nc(C)c([C@H](OC(C)(C)C)C(=O)O)c(N2CCC(C)(C)CC2)c1-c1ccc2c(c1)CCN(c1nccc(N(C)C)n1)C2 [Example 17, (2S)-2-(tert-Butoxy)-2-(5-{2-[4-(dimethylamino)pyrimidin-2-yl]-1,2,3,4-tetrahydroisoquinolin-6-yl}-4-(4,4-dimethylpiperidin-1-yl)-2,6-dimethylpyridin-3-yl)acetic Acid]	1 nM
Cc1nc(C)c([C@H](OC(C)(C)C)C(=O)O)c(N2CCC(C)(C)CC2)c1-c1ccc2c(c1)CCN(c1ncnc3c1oc1ccc(Cl)cc13)C2 [Example 122, (S)-2-(tert-Butoxy)-2-(5-(2-(8-chlorobenzofuro[3,2-d]pyrimidin-4-yl)-1,2,3,4-tetrahydroisoquinolin-6-yl)-4-(4,4-dimethylpiperidin-1-yl)-2,6-dimethylpyridin-3-yl)acetic Acid]	5 nM
Cc1cc(F)ccc1CN1CCc2cc(-c3cnc(C)c([C@H](OC(C)(C)C)C(=O)O)c3N3CCC(C)(C)CC3)ccc2C1 [Example 51, (2S)-2-(tert-Butoxy)-2-[4-(4,4-dimethylpiperidin-1-yl)-5-{2-[(4-fluoro-2-methylphenyl)methyl]-1,2,3,4-tetrahydroisoquinolin-6-yl}-2-methylpyridin-3-yl]acetic Acid]	4 nM
Cc1nc(C)c([C@H](OC(C)(C)C)C(=O)O)c(N2CCC(C)(C)CC2)c1-c1ccc2c(c1)CCN(c1ccnc(N3CCC(F)(F)CC3)n1)C2 [Example 76, (S)-2-(tert-Butoxy)-2-(5-(2-(2-(4,4-difluoropiperidin-1-yl)pyrimidin-4-yl)-1,2,3,4-tetrahydroisoquinolin-6-yl)-4-(4,4-dimethylpiperidin-1-yl)-2,6-dimethylpyridin-3-yl)acetic Acid]	3 nM
Cc1nc(C)c([C@H](OC(C)(C)C)C(=O)O)c(N2CCC(C)(C)CC2)c1-c1ccc2c(c1)CCN(c1cc(N3CCC(CCO)CC3)ncn1)C2 [Example 121, (S)-2-(tert-Butoxy)-2-(4-(4,4-dimethylpiperidin-1-yl)-5-(2-(6-(4-(2-hydroxyethyl)piperidin-1-yl)pyrimidin-4-yl)-1,2,3,4-tetrahydroisoquinolin-6-yl)-2,6-dimethylpyridin-3-yl)acetic Acid]	9 nM
Cc1nc(C)c([C@H](OC(C)(C)C)C(=O)O)c(N2CCC(C)(C)CC2)c1-c1ccc2c(c1)CCN(c1ccnc(N3C[C@@H](C)O[C@@H](C)C3)n1)C2 [Example 27, (2S)-2-(tert-Butoxy)-2-[5-(2-{2-[(2R,6S)-2,6-dimethylmorpholin-4-yl]pyrimidin-4-yl}-1,2,3,4-tetrahydroisoquinolin-6-yl)-4-(4,4-dimethylpiperidin-1-yl)-2,6-dimethylpyridin-3-yl]acetic Acid]	2 nM
CCC(C)(C)O[C@H](C(=O)O)c1c(C)ncc(-c2ccc3c(c2)CCN(Cc2c(C)cccc2Cl)C3)c1N1CCC(C)(C)CC1 [Example 53, (2S)-2-(5-{2-[(2-Chloro-6-methylphenyl)methyl]-1,2,3,4-tetrahydroisoquinolin-6-yl}-4-(4,4-dimethylpiperidin-1-yl)-2-methylpyridin-3-yl)-2-[(2-methylbutan-2-yl)oxy]acetic Acid]	6 nM
Cc1nc(C)c([C@H](OC(C)(C)C)C(=O)O)c(N2CCC(C)(C)CC2)c1-c1ccc2c(c1)CCN(c1ncnc(N3CCC(CCO)CC3)n1)C2 [Example 63, (S)-2-(tert-Butoxy)-2-(4-(4,4-dimethylpiperidin-1-yl)-5-(2-(4-(4-(2-hydroxyethyl)piperidin-1-yl)-1,3,5-triazin-2-yl)-1,2,3,4-tetrahydroisoquinolin-6-yl)-2,6-dimethylpyridin-3-yl)acetic Acid]	4 nM
Cc1nc(C)c([C@H](OC(C)(C)C)C(=O)O)c(N2CCC(C)(C)CC2)c1-c1ccc2c(c1)CCN(c1cc(N3CCC(N4CCOCC4)CC3)ncn1)C2 [Example 134, (S)-2-(tert-Butoxy)-2-(4-(4,4-dimethylpiperidin-1-yl)-2,6-dimethyl-5-(2-(6-(4-morpholinopiperidin-1-yl)pyrimidin-4-yl)-1,2,3,4-tetrahydroisoquinolin-6-yl)pyridin-3-yl)acetic Acid]	4 nM
Cc1cccc(Cl)c1CN1CCc2cc(-c3c(CF)nc(C)c([C@H](OC(C)(C)C)C(=O)O)c3N3CCC(C)(C)CC3)ccc2C1 [Example 158, (S)-2-(tert-Butoxy)-2-(5-(2-(2-chloro-6-methylbenzyl)-1,2,3,4-tetrahydroisoquinolin-6-yl)-4-(4,4-dimethylpiperidin-1-yl)-6-(fluoromethyl)-2-methylpyridin-3-yl)acetic Acid]	5 nM
Cc1nc(NC2CCN(C)CC2)c(-c2ccc3c(c2)CCN(c2ncnc4c2oc2ccccc24)C3)c(N2CCC(C)(C)CC2)c1[C@H](OC(C)(C)C)C(=O)O [Example 12, (S)-2-(5-(2-(Benzofuro[3,2-d]pyrimidin-4-yl)-1,2,3,4-tetrahydroisoquinolin-6-yl)-4-(4,4-dimethylpiperidin-1-yl)-2-methyl-6-((1-methylpiperidin-4-yl)amino)pyridin-3-yl)-2-(tert-butoxy)acetic Acid]	1 nM
Cc1nc(C)c([C@H](OC(C)(C)C)C(=O)O)c(N2CCC(C)(C)CC2)c1-c1ccc2c(c1)CCN(c1nccc(N3CCC4(CCC4)CC3)n1)C2 [Example 25, (2S)-2-{5-[2-(4-{7-Azaspiro[3.5]nonan-7-yl}pyrimidin-2-yl)-1,2,3,4-tetrahydroisoquinolin-6-yl]-4-(4,4-dimethylpiperidin-1-yl)-2,6-dimethylpyridin-3-yl}-2-(tert-butoxy)acetic Acid]	5 nM
Cc1nc(C)c([C@H](OC(C)(C)C)C(=O)O)c(N2CCC(C)(C)CC2)c1-c1ccc2c(c1)CCN(c1ccnc(N3CCCC3)n1)C2 [Example 20, (2S)-2-(tert-Butoxy)-2-[4-(4,4-dimethylpiperidin-1-yl)-2,6-dimethyl-5-{2-[2-(pyrrolidin-1-yl)pyrimidin-4-yl]-1,2,3,4-tetrahydroisoquinolin-6-yl}pyridin-3-yl]acetic Acid]	2 nM
Cc1nc(C#N)c(-c2ccc3c(c2)CCN(c2ncnc4c2oc2ccccc24)C3)c(N2CCC(C)(C)CC2)c1[C@H](OC(C)(C)C)C(=O)O [Example 50]	4 nM
CC1(C)CCN(c2c(-c3ccc4c(c3)CCN(c3nccc(-c5cnccn5)n3)C4)c(N)nc(Cl)c2[C@H](OC(C)(C)C)C(=O)O)CC1 [Example 163, (S)-2-(6-Amino-2-chloro-4-(4,4-dimethylpiperidin-1-yl)-5-(2-(4-(pyrazin-2-yl)pyrimidin-2-yl)-1,2,3,4-tetrahydroisoquinolin-6-yl)pyridin-3-yl)-2-(tert-butoxy)acetic Acid]	3 nM

Reference: patent US20200016136A1 (VIIV HEALTHCARE UK (NO. 5) LIMITED, priority 2017, published 2020)
